These are literature values, as cited in patent US20090175967A1, “METHODS FOR TREATMENT OF INTESTINAL CARCINOGENESIS WITH RICE BRAN” (priority 2008, published 2009).

In the data set the test system is Apc^Min mice.

In the case of `COc1cc(/C=C/C(=O)CC(=O)/C=C/c2ccc(O)c(OC)c2)ccc1O` [curcumin], the adenoma development entry is listed as “compromised adenoma development”.
